Data: patent publication US20110105555A1, “SUBSTITUTED N-IMIDAZO[2,1-B]THIAZOLE-5-SULFONAMIDE DERIVATIVES AS 5-HT6 LIGANDS” (priority 2008, published 2011)
Structures can show the parent of a compound that is named as a salt.

Target: T1, 5HT6-human recombinant receptor (Homo sapiens, UniProt P50406)
Assay: not given
Settings: cited from earlier work

T1 sequence (P50406 whole entry): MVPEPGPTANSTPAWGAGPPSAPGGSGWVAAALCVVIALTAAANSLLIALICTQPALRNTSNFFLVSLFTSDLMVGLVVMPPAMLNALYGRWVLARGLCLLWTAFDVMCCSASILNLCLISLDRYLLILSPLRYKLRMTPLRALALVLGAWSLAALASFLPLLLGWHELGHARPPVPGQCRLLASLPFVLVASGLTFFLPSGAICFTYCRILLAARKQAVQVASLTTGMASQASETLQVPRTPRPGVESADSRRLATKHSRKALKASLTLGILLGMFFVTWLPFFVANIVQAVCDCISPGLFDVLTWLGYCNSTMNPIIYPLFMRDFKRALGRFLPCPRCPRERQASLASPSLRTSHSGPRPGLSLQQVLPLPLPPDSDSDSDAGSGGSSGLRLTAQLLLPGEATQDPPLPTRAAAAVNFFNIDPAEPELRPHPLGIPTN

SMILES | binding for the recombinant human 5-HT6 receptor
CN(C)CCc1c[nH]c2ccc(NS(=O)(=O)c3ccc4c(Cl)cccc4c3)cc12 [Compound E-6837, 5-chloro-N-[3-(2-(dimethylamino)ethyl)-1H-indol-5-yl]naphthalene-2-sulphonamide] | selective and high affinity binding

Test system: not given
Assay: not given
Settings: in vivo; cited from earlier work

SMILES | body weight | food intake
CN(C)CCc1c[nH]c2ccc(NS(=O)(=O)c3ccc4c(Cl)cccc4c3)cc12 [Compound E-6837, 5-chloro-N-[3-(2-(dimethylamino)ethyl)-1H-indol-5-yl]naphthalene-2-sulphonamide] | significant body weight loss | reduction in the food intake

Target: T1, 5HT6-human recombinant receptor
Assay: Binding to serotonin receptor 5-HT6 ([3H]-LSD radioligand, HEK-293 cell membranes)
Design: purchased Receptor Biology; host or cells: HEK-293 cells (membranes)
Settings: [3H]-LSD 2.7 nM, 60 minutes at 37° C., tests in triplicate
Description: Binding to Serotonin Receptor 5ht6
Cell membranes of HEK-293 cells expressing the 5HT6-human recombinant receptor were supplied by Receptor Biology. In said membranes the receptor concentration is 2.18 pmol/mg protein and the protein concentration is 9.17 mg/ml. The experimental protocol follows the method of B. L. Roth et al. [B. L. Roth et al., The Journal of Pharmacology and Experimental Therapeutics, 1994, 268, 1403] with the following slight changes. The respective part of the literature description is hereby incorporated by reference and forms part of the disclosure.
The commercial membrane is diluted (1:40 dilution) with the binding buffer: 50 mM Tris-HCl, 10 mM MgCl2, 0.5 mM EDTA (pH 7.4). The radioligand used is [^3H]-LSD at a concentration of 2.7 nM with a final volume of 200 μl. incubation is initiated by adding 100 μl of membrane suspension, (≈22.9 μg membrane protein), and is prolonged for 60 minutes at a temperature of 37° C. The incubation is ended by fast filtration in a Brandel Cell Harvester through fiber glass filters made by Schleicher & Schnell GF 3362 pretreated with a solution of polyethylenimine at 0.5%. The filters are washed three times with three milliliters of buffer Tris-HCl 50 mM pH 7.4. The filters are transferred to flasks and 5 ml of Ecoscint H liquid scintillation cocktail are added to each flask. The flasks are allowed to reach equilibrium for several hours before counting with a Wallac Winspectral 1414 scintillation counter. Non-specific binding is determined in the presence of 100 μM of serotonin, Tests were made in triplicate. The inhibition constants (Ki, nM) were calculated by non-linear regression analysis using the program EBDA/LIGAND described in Munson and Rodbard, Analytical Biochemistry, 1980, 107, 220, which is hereby incorporated by reference and forms part of the disclosure.

Ki [nM] | SMILES
12.8 | CC(=O)N1CCc2ccc(NS(=O)(=O)c3c(Cl)nc4sccn34)cc21 [Compound 20, 6-Chloro-imidazo[2,1-b]thiazole-5-sulfonic acid (1-acetyl-2,3-dihydro-1H-indol-6-yl)-amide]
4.9 | O=C1CCc2ccc(NS(=O)(=O)c3c(Br)nc4sccn34)cc21 [Compound 41, 6-Bromo-imidazo[2,1-b]thiazole-5-sulfonic acid (3-oxo-indan-5-yl)-amide hydrochloride]
5.7 | O=S(=O)(Nc1ccc2[nH]ncc2c1)c1c(Cl)nc2sccn12 [Compound 25, 6-Chloro-imidazo[2,1-b]thiazole-5-sulfonic acid (1H-indazol-5-yl)-amide hydrochloride]
23 | Cn1ccc2cc(NS(=O)(=O)c3c(Cl)nc4sccn34)ccc21 [Compound 15, 6-Chloro-imidazo[2,1-b] thiazole-5-sulfonic acid (1methyl-1H-indol-5-yl)-amide]
68 | O=S(=O)(Nc1ccc2c(c1)COC2)c1c(Cl)nc2sccn12 [Compound 31, 6-Chloro-imidazo[2,1-b]thiazole-5-sulfonic acid (1,3-dihydro-isobenzo furan-5-yl)-amide]
14.5 | Cc1nc2cc(NS(=O)(=O)c3c(Cl)nc4sccn34)ccc2s1 [Compound 4, 6-Chloro-imidazo[2,1-b] thiazole-5-sulfonic acid (2-methyl-benzothiazol-5-yl)-amide]
11.1 | O=S(=O)(Nc1ccc2c(c1)CCC2)c1c(Cl)nc2sccn12 [Compound 1, 6-Chloro-imidazo[2,1-b] thiazole-5-sulfonic acid indan-5-ylamide]
19 | O=S(=O)(Nc1ccc2c(c1)CCCC2)c1c(Cl)nc2sccn12 [Compound 30, 6-Chloro-imidazo[2,1-b]thiazole-5-sulfonic acid (5,6,7,8-tetrahydro-naphthalen-2-yl)-amide]
5.4 | CCN(CC)c1ccc(NS(=O)(=O)c2c(Cl)nc3sccn23)cc1 [Compound 32, 6-Chloro-imidazo[2,1-b]thiazole-5-sulfonic acid (4-diethylamino-phenyl)-amide hydrochloride]
1.6 | CC(=O)N1CCc2cc(NS(=O)(=O)c3c(Cl)nc4sccn34)ccc21 [Compound 19, 6-Chloro-imidazo[2,1-b]thiazole-5-sulfonic acid (1-acetyl-2,3-dihydro-1H-indol-5-yl)-amide]
8.7 | CN(C)c1ccc(NS(=O)(=O)c2c(Cl)nc3sccn23)cc1 [Compound 16, 6-Chloro-imidazo[2,1-b] thiazole-5-sulfonic acid (4-dimethylamino-phenyl)-amide]
6.6 | CC(C)(C)OC(=O)n1ncc2cc(NS(=O)(=O)c3c(Br)nc4sccn34)ccc21 [Compound 60, 5-(6-Bromo-imidazo[2,1-b]thiazole-5-sulfonylamino)-indazole-1-carboxylic acid tert-butyl ester]
7.4 | O=S(=O)(Nc1ccc2c(c1)NCC2)c1c(Cl)nc2sccn12 [Compound 34, 6-Chloro-imidazo[2,1-b]thiazole-5-sulfonic acid (2,3-dihydro-1H-indol-6-yl)-amide]
20 | O=S(=O)(Nc1ccc2c(c1)CCN2)c1c(Cl)nc2sccn12 [Compound 23, 6-Chloro-imidazo[2,1-b]thiazole-5-sulfonic acid (2,3-dihydro-1H-indol-5-yl)-amide hydrochloride]
10 | O=S(=O)(Nc1ccc2[nH]ccc2c1)c1c(Br)nc2sccn12 [Compound 36, 6-Bromo-imidazo[2,1-b]thiazole-5-sulfonic acid (1H-indol-5-yl)-amide]
37.2 | CC(=O)N1CCc2ccc(NS(=O)(=O)c3c(Br)nc4sccn34)cc21 [Compound 38, 6-Bromo-imidazo[2,1-b]thiazole-5-sulfonic acid (1-acetyl-2,3-dihydro-1H-indol-6-yl)-amide]
1.3 | CC(=O)N1CCc2cc(NS(=O)(=O)c3c(Br)nc4sccn34)ccc21 [Compound 37, 6-Bromo-imidazo[2,1-b]thiazole-5-sulfonic acid (1-acetyl-2,3-dihydro-1H-indol-5-yl)-amide]
7.1 | O=C1CCc2ccc(NS(=O)(=O)c3c(Cl)nc4sccn34)cc21 [Compound 28, 6-Chloro-imidazo[2,1-b]thiazole-5-sulfonic acid (3-oxo-indan-5-yl)-amide]
12.7 | O=S(=O)(Nc1ccc2ncsc2c1)c1c(Cl)nc2sccn12 [Compound 3, 6-Chloro-imidazo[2,1-b] thiazole-5-sulfonic acid benzothiazol-6-ylamide]
